Peptide text beside a SMILES is read from it. * marks the point of attachment. Paclitaxel(2'-O-succinyl) = CC(=O)O[C@H]1C(=O)[C@@]2(C)[C@H]([C@H](OC(=O)c3ccccc3)[C@]3(O)C[C@H](OC(=O)[C@H](OC(=O)CCC(=O)*)[C@@H](NC(=O)c4ccccc4)c4ccccc4)C(C)=C1C3(C)C)[C@]1(OC(C)=O)CO[C@@H]1C[C@@H]2O
What was measured:
A549 cells = assay: Tumor horizontal migration (scratch test); type: cell-based; details: 48 h
Experimental: A549 cells in the logarithmic growth phase were taken, digested with trypsin to prepare a cell suspension, and 1 mL of the cell suspension was inoculated into a 24-well plate with 3.5×10^5 cells per well. The 24-well plate was incubated in a 37°C, 5% CO2 incubator for 24 h, then a scratch was made vertically along the horizontal line at the bottom of the plate using a 200 µL pipette tip (one scratch per well). The original medium was discarded, and the wells were washed twice with 1 mL PBS. A blank group, a positive drug group, and an administration group were set up. […] The cell migration status was photographed at 0 h and 48 h using a microscope (model: CKX31SF, manufacturer: OLYMPUS CORPORATION) at a magnification of 100×. Meanwhile, ImageJ 1.74V was used for quantitative calculation of the number of migrated tumor cells, and the results were expressed as mean ± SD (n = 3).

[1] = test system: LoVo (human colon cancer cells); assay: Tumor cell proliferation inhibition (CCK8); type: cell-based; details: IC50 of free drug / IC50 of polypeptide conjugate
Description: (§1) Human highly metastatic hepatocellular carcinoma cells HCCLM3, human highly metastatic gastric cancer cells MKN45, human gastric cancer cells BGC-823 and MGC-803, non-small cell lung cancer cells A549, human pancreatic cancer cells ASPC-1, human colon cancer cells LoVo, human ovarian cancer cells A2780, human cervical cancer cells SiHa, human malignant melanoma cells SK-mel-2 and M14, human osteosarcoma cells Saos-2, human bladder transitional cell carcinoma cells T24, human brain glioblastoma cells U87-MG, human lymphoma cells Raji, and human epidermal cancer cells A431 were selected for the experiment. Among them, HCCLM3 cells, MKN45 cells, BGC-823 cells, MGC-803 cells, A431 cells and A549 cells were provided by Nanjing Anji Biotechnology Co., Ltd., and the other cells were provided by Nanjing Ouji Pharmaceutical Technology Service Co., Ltd.
(§2) The aforementioned tumor cells were preserved in a medium containing 10% fetal bovine serum and 1% penicillin-streptomycin, and incubated at 37°C with 5% CO2 and 95% humidity. The aforementioned tumor cells were cultured in T75 flasks with an experimental cell density of 80%. The aforementioned tumor cell lines were mycoplasma-negative.
(§3) Tumor cells in the logarithmic growth phase were taken for the experiment. The cells were digested, counted, and prepared into a cell suspension with a concentration of 1×10^5 cells/mL, which was then inoculated into a 96-well plate (100 µL per well). The 96-well plate was incubated in a 37°C, 5% CO2 incubator for 24 hours. […] After incubating the plate in the incubator for 72 h, the cell morphology of each group was observed under a microscope. Then, 10 µL of CCK8 solution (Nanjing Enjing Biotechnology Co., Ltd.) was added to each well, and the plate was further incubated in the cell incubator for 4 h. After incubation, the absorbance was measured at 450 nm, and the tumor cell proliferation inhibition rate was calculated. The efficiency ratio was the ratio of the IC50 value of the free drug to that of the polypeptide conjugate. Table 1 Tumor cell proliferation inhibition rates of polypeptide conjugates

[2] = test system: SiHa (human cervical cancer cells); assay: Tumor cell proliferation inhibition (CCK8); type: cell-based; details: IC50 of free drug / IC50 of polypeptide conjugate
Description: as §1, §2, §3

[3] = test system: U87-MG (human brain glioblastoma cells); assay: Tumor cell proliferation inhibition (CCK8); type: cell-based; details: IC50 of free drug / IC50 of polypeptide conjugate
Description: as §1, §2, §3

[4] = test system: M14 (human malignant melanoma cells); assay: Tumor cell proliferation inhibition (CCK8); type: cell-based; details: IC50 of free drug / IC50 of polypeptide conjugate
Description: as §1, §2, §3

[5] = test system: gastric cancer MKN45 xenograft tumors; assay: In vivo tumor-inhibitory activity of DOC-AI, MKN45 xenograft; design: species or system BALB/c nude mice; Tumor Weight: unit not given here; details: 6.20 µmol/Kg
Experimental: (§4) Non-small cell lung cancer A549 cells and human gastric cancer MKN-45 cells were preserved in F12-K medium containing 10% fetal bovine serum and 1% penicillin + streptomycin, and incubated at 37°C with 5% CO2 and 95% humidity. The aforementioned cells were cultured in T175 flasks with an experimental cell density of 80%. The aforementioned cell lines were mycoplasma-negative. Both A549 cells and MKN-45 cells were provided by Nanjing Anji Biotechnology Co., Ltd.
Gastric cancer MKN45 cells in the vigorous growth stage were taken and inoculated subcutaneously into the right axilla of BALB/c nude mice (Hangzhou Ziyuan Laboratory Animal Technology Co., Ltd.) under sterile conditions, with a cell inoculation amount of 1×10^7. The diameter of transplanted tumors in nude mice was measured with a vernier caliper. When the tumors grew to approximately 50 mm^3, 18 tumor-bearing nude mice with good growth status and relatively uniform tumor size were selected and divided into 3 groups, with 6 mice in each group. The administration frequency was once every 3 days, and this cycle was repeated until day 21. The anti-tumor effect in the nude mice was dynamically observed by measuring the tumor diameter. The tumor diameter was measured every other day, and the body weight of the nude mice was weighed simultaneously during the measurement of the tumor diameter. After 21 days of administration, the nude mice were euthanized, the tumor inhibition rate (%) was calculated, and the tumor masses were peeled off and weighed. Table 7 Results of Detection of In Vivo Tumor-Inhibitory Activity of DOC-AI

[6] = test system: human gastric cancer cell MKN45 xenograft tumors; assay: In vivo tumor-inhibitory activity of PTX-AI, MKN45 xenograft; design: species or system BALB/c nude mice; details: 21 days; for Final Tumor Volume: in mm³ (unit assumed)
Experimental: as §4
Human gastric cancer cells MKN-45 in the vigorous growth stage were taken and inoculated subcutaneously into the right axilla of BALB/c nude mice under sterile conditions, with a cell inoculation amount of 5×10^6. The diameter of transplanted tumors in nude mice was measured with a vernier caliper. When the tumors grew to approximately 50mm^3, […] tumor-bearing nude mice with good growth status and relatively uniform tumor size were selected, and divided into 6 groups, including 10 mice in the model group and 8 mice in each of the remaining groups. The anti-tumor effect of the test substance was dynamically observed by measuring the tumor diameter. The tumor diameter was measured every other day, and the body weight of the nude mice was weighed simultaneously during the measurement of the tumor diameter. After 21 days of administration, the nude mice were euthanized, the tumor inhibition rate (%) was calculated, and the tumor masses were peeled off and weighed. Table 3 Detection of In Vivo Tumor-Inhibitory Activity of PTX-AI

[7] = test system: T24 (human bladder transitional cell carcinoma cells); assay: Tumor cell proliferation inhibition (CCK8); type: cell-based; details: IC50 of free drug / IC50 of polypeptide conjugate
Description: as §1, §2, §3

[8] = test system: Saos-2 (human osteosarcoma cells); assay: Tumor cell proliferation inhibition (CCK8); type: cell-based; details: IC50 of free drug / IC50 of polypeptide conjugate
Description: as §1, §2, §3

[9] = test system: A2780 (human ovarian cancer cells); assay: Tumor cell proliferation inhibition (CCK8); type: cell-based; details: IC50 of free drug / IC50 of polypeptide conjugate
Description: as §1, §2, §3

[10] = MKN45 xenograft, once every 3 days until day 21
[11] = 2.64 µmol/Kg, once every other day
[12] = 4.07 µmol/Kg, once every other day
[13] = 5.28 µmol/Kg, continuous administration for 4 days a week
[14] = 7.92 µmol/Kg, once every other day

Compound: CC(=O)O[C@@]12CO[C@@H]1C[C@H](O)[C@@]1(C)C(=O)[C@H](O)C3=C(C)[C@@H](OC(=O)[C@H](OC(=O)CCC(=O)N[C@@H](CCCNC(=N)N)C(=O)N[C@@H](CO)C(=O)N4CCC[C@H]4C(=O)N[C@@H](Cc4ccc(O)cc4)C(=O)N[C@@H](C)C(=O)N[C@@H](CC(N)=O)C(=O)N[C@@H](CO)C(=O)O)[C@@H](NC(=O)OC(C)(C)C)c4ccccc4)C[C@@](O)([C@@H](OC(=O)c4ccccc4)[C@H]21)C3(C)C [DOC-AI]
- horizontal migration rate (A549 cells; 1 nM DOC-AI compared with 100 nM DOC): lower than that of 100 nM DOC
- horizontal migration of A549 cells (A549 cells; 100 nM, 10 nM, 1 nM, compared with the blank group): effectively inhibited the horizontal migration of A549 cells in a concentration-dependent manner
- Efficiency Ratios [1]: 1.18
- Efficiency Ratios [2]: 3.90
- Efficiency Ratios [3]: 2.05
- Efficiency Ratios [4]: 1.21
- body weight changes ([5]; MKN45 xenograft nude mice, during the administration period): no significant weight loss was observed
- Tumor Inhibition Rate [5, 10]: 84.25±9.15%
- Tumor Weight [5, 10]: 204.34±54.48
- Final Tumor Volume ([5]; MKN45 xenograft, once every 3 days until day 21, in mm³ (unit assumed)): 191.31±54.48

Compound: CC(=O)O[C@H]1C(=O)[C@@]2(C)[C@H]([C@H](OC(=O)c3ccccc3)[C@]3(O)C[C@H](OC(=O)[C@H](OC(=O)CCC(=O)N[C@@H](CCCNC(=N)N)C(=O)N[C@@H](CO)C(=O)N4CCC[C@H]4C(=O)N[C@@H](Cc4ccc(O)cc4)C(=O)N[C@@H](C)C(=O)N[C@@H](CC(N)=O)C(=O)N[C@@H](CO)C(=O)O)[C@@H](NC(=O)c4ccccc4)c4ccccc4)C(C)=C1C3(C)C)[C@]1(OC(C)=O)CO[C@@H]1C[C@@H]2O [PTX-AI] ({Paclitaxel(2'-O-succinyl)}-RSPYANS-OH)
- Tumor Inhibition Rate [6, 11]: 36.3%
- Tumor Weight [6, 11]: 0.961 ± 0.119 g
- Final Tumor Volume [6, 11]: 934.0±125.0
- Tumor Inhibition Rate [6, 12]: 42.9%
- Tumor Weight [6, 12]: 0.861 ± 0.126 g
- Final Tumor Volume [6, 12]: 852.1±137.3
- Tumor Inhibition Rate [6, 13]: 53.3%
- Tumor Weight [6, 13]: 0.705 ± 0.066 g
- Final Tumor Volume [6, 13]: 700.6±59.6
- Tumor Inhibition Rate [6, 14]: 60.8%
- Tumor Weight [6, 14]: 0.591 ± 0.099 g
- Final Tumor Volume [6, 14]: 579.8±91.9
- Efficiency Ratios [7]: 1.78
- Efficiency Ratios [8]: 1.47
- Efficiency Ratios [9]: 1.11

— EP4725507A1, “POLYPEPTIDE CONJUGATE, PHARMACEUTICAL COMPOSITION CONTAINING POLYPEPTIDE CONJUGATE AND USE THEREOF” (Nanjing Anji Biotechnology Co., Ltd., priority 2023, dated 2025)
